Measured values taken from ChEMBL document CHEMBL1138898 (Bioorg Med Chem Lett, 2006).

Molecular target: not listed separately
Test: Binding affinity to alpha-2delta calcium channel

SMILES	Ki [nM]
NCC(c1ccccc1)c1nnn[nH]1 (stereo not given)	> 10000
CC(CN)(Cc1ccccc1)c1nnn[nH]1 (stereo not given)	900
NCC(CCc1ccccc1)c1nnn[nH]1 (stereo not given)	3100
NCC(CCCCCc1ccccc1)c1nnn[nH]1 (stereo not given)	500
CC(C)C1CC1(CN)c1nnn[nH]1 (stereo not given)	190
CCC(CC)C1CC1(CN)c1nnn[nH]1 (stereo not given)	4000
CC(C)CC(CN)c1nnn[nH]1 (stereo not given)	17
NCC(Cc1ccccc1)(Cc1ccccc1)c1nnn[nH]1	> 10000
NCCc1nnn[nH]1	> 10000
NCC(CCCCc1ccccc1)c1nnn[nH]1 (stereo not given)	130
NCC(c1nnn[nH]1)C1CCCCC1 (stereo not given)	150
NCC(CC1CCCCC1)c1nnn[nH]1 (stereo not given)	570
CC(C)C(CN)c1nnn[nH]1 (stereo not given)	130
CC(CN)(Cc1ccc(F)c(F)c1)c1nnn[nH]1 (stereo not given)	520
NCC1(c2nnn[nH]2)CC12CCCCC2 (stereo not given)	33
CCCC(CCC)CC(CN)c1nnn[nH]1 (stereo not given)	280
NCC(c1nnn[nH]1)C1CCCC1 (stereo not given)	18
CC(C)CCC(CN)c1nnn[nH]1 (stereo not given)	210
CC(CN)(Cc1cccc(C(F)(F)F)c1)c1nnn[nH]1 (stereo not given)	160
CC(C)(CN)c1nnn[nH]1	> 10000
NCC(Cc1ccccc1)c1nnn[nH]1 (stereo not given)	7600
NCC(CCCc1ccccc1)c1nnn[nH]1 (stereo not given)	2100
CCC(CC)CC(CN)c1nnn[nH]1 (stereo not given)	11
CCCCCCC(CN)c1nnn[nH]1 (stereo not given)	330

System: Mus musculus
Test: Protection of DBA/2 mouse against audiogenic-induced tonic seizure at 30 mg/kg, po after 1 hr
Format: functional

SMILES	Activity [%]
CC(C)CC(CN)c1nnn[nH]1 (stereo not given)	40
CC(C)C[C@H](CN)CC(=O)O [PREGABALIN]	100
CCC(CC)CC(CN)c1nnn[nH]1 (stereo not given)	60

System: Mus musculus
Test: Protection of DBA/2 mouse against audiogenic-induced tonic seizure at 30 mg/kg, po after 2 hrs
Format: functional

SMILES	Activity [%]
CC(C)CC(CN)c1nnn[nH]1 (stereo not given)	80
CC(C)C[C@H](CN)CC(=O)O [PREGABALIN]	100
CCC(CC)CC(CN)c1nnn[nH]1 (stereo not given)	100
